ChEMBL document CHEMBL5029172, “Neopentyl Glycol as a Scaffold to Provide Radiohalogenated Theranostic Pairs of High In Vivo Stability” (J Med Chem, 2021)

Legend:
[1] = Metabolic stability in human liver microsomes assessed as intact fractions at […] preincubated for 5 min measured by TLC followed by RP-HPLC; assay type: ADME, Microsome; conditions: read-out: Activity
[2] = Metabolic stability in mouse liver microsomes assessed as intact fractions at […] preincubated for 5 min measured by TLC followed by RP-HPLC; assay type: ADME, Microsome; conditions: read-out: Activity
[3] = Metabolic stability in mouse liver microsomes assessed as retention time at […] measured after 5 mins by RP-HPLC; assay type: ADME, Microsome
[4] = Metabolic stability in human liver microsomes assessed as retention time at […] measured after 5 mins by RP-HPLC; assay type: ADME, Microsome
[5] = Biodistribution in ICR mouse neck at 7.4 kBq, iv upto 24 hrs; assay type: ADME, organism-based; conditions: in vivo
[6] = Biodistribution in ICR mouse stomach at 7.4 kBq, iv upto 24 hrs; assay type: ADME, organism-based; conditions: in vivo
[7] = Biodistribution in ICR mouse assessed as blood clearance by measuring elimination rate at 7.4 kBq, iv upto 24 hrs; assay type: ADME, organism-based; conditions: in vivo
[8] = Drug metabolism in ICR mouse urine assessed as metabolite during retention time measured at 7.4 kBq, iv after 6 hrs by RP-HPLC followed by HILIC-HPLC analysis; assay type: ADME, organism-based
[9] = Stability of compound in presence of GSH measured upto 24 hrs by TLC radiochromatogram; assay type: physicochemical
[10] = Metabolic stability in mouse liver microsomes assessed as intact fractions at 0.3 MBq preincubated for 5 min measured by TLC analysis; assay type: ADME, Microsome; conditions: read-out: Stability
[11] = Metabolic stability in human liver microsomes assessed as intact fractions at 0.3 MBq preincubated for 5 min measured by TLC analysis; assay type: ADME, Microsome; conditions: read-out: Stability

| Structure (SMILES) | remaining at 5 min [1] [%] | remaining at 5 min [2] [%] | Retention_time [3] [min] | Retention_time [4] [min] | Drug uptake [5] | Drug uptake [6] | CL [7] | Drug excretion [8] | Stability [9] | Drug metabolism [8] | remaining at 5 min, 0.3 MBq [10] [%] | remaining at 5 min, 0.3 MBq [11] [%] |
| --- | --- | --- | --- | --- | --- | --- | --- | --- | --- | --- | --- | --- |
| CCC(C[125I])(CO[C@@H]1O[C@H](C(=O)O)[C@@H](O)[C@H](O)[C@H]1O)Cn1ccnc1[N+](=O)[O-] (stereo partly specified) | > 99.8 | > 99.8 | < 0.2 | < 0.2 | – | – | – | – | – | – | – | – |
| CCC(CC)(C[125I])Cn1ccnc1[N+](=O)[O-] | 1.5 | 2.2 | 52.6 | 16.5 | Active | Active | Not Active | Active | Stable | – | – | – |
| O=[N+]([O-])c1nccn1CC(CO)(CO)C[211At] | 96.9 | 96.9 | – | – | Not Active | Not Active | Active | – | Stable | Metabolite_Detected | 96.9 | 96.9 |
| O=C(NCCn1ccnc1[N+](=O)[O-])c1cccc([211At])c1 | – | – | – | – | Active | Active | Not Active | – | – | – | – | – |
| O=[N+]([O-])c1nccn1CC(CO)(CO)C[125I] | > 99.8 | > 99.8 | < 0.2 | < 0.2 | Not Active | Not Active | Active | – | Stable | Metabolite_Detected | – | – |
| O=C(O)[C@H]1O[C@@H](OCC(CO)(C[125I])Cn2ccnc2[N+](=O)[O-])[C@H](O)[C@@H](O)[C@@H]1O (stereo partly specified) | > 99.8 | > 99.8 | < 0.2 | < 0.2 | – | – | – | – | – | – | – | – |
| CCC(CO)(C[125I])Cn1ccnc1[N+](=O)[O-] (stereo unspecified) | > 99.8 | 72 | 23.5 | < 0.2 | Not Active | Not Active | Active | Active | Stable | – | – | – |
| O=C(NCCn1ccnc1[N+](=O)[O-])c1cccc([125I])c1 | – | – | – | – | Not Active | Not Active | Active | Not Active | – | – | – | – |
